# Measurements: patent US4734120A, “Dipeptides containing C-terminal phosphinothricin, a process for their preparation and their use for controlling undesirable plant growth” (Hoechst Aktiengesellschaft, priority 1985, dated 1988)
# How the values were obtained:
# Assay in all cases: Effect on weeds by the post-emergence technique
# Assay type in all cases: in vivo
# Conditions in all cases: rated visually after approx. 3-4 weeks
# Avena fatua (wild oats) = system: Avena fatua (wild oats)
# Protocol: (§1) The damage caused to weed plants or the toleration by crop plants was rated by means of a code in which the activity is expressed by valuation numbers from 0 to 5. These have the following meanings:
# (§2) Seeds or pieces of rhizome of monocotyledonous and dicotyledonous weeds were laid out in sandy loam soil in plastic pots (.phi.=9 l cm), covered with soil and cultivated in a greenhouse under good conditions for growth. The test plants were treated in the three leaf stage three weeks after sowing.
# (§3) The compounds according to the invention, formulated as wettable powders, as emulsion concentrates or as aqueous solutions, were sprayed onto the green parts of the plants at various dosages and at a water application rate equivalent to 600 l/hectare, and the effect of the preparations was rated visually in comparison with untreated controls after the test plants had stood for approx. 3-4 weeks in a greenhouse under optimum conditions for growth (temperature 23 plus/minus 1° C.; relative humidity 60-80%). The agents according to the invention display a good herbicidal activity in the post-emergence technique against a broad spectrum of grass-like weeds and weeds of economic importance.
# [1] = system: Chrysanthemum segetum corn marigold
# Protocol: as §1, §2, §3
# [2] = system: Echinochloa crusgalli barnyardgrass
# Protocol: as §1, §2, §3
# [3] = system: Setaria lutescens foxtail
# Protocol: as §1, §2, §3
# [4] = system: Sinapis alba (white mustard)
# Protocol: as §1, §2, §3
# [5] = system: Stellaria media (starwort)
# Protocol: as §1, §2, §3
smiles,measurement,setting,value
CP(=O)(O)CCC(NC(=O)C(N)c1ccccc1)C(=O)O (centres unmarked) [Example 34],Herbicidal effect AVF,Avena fatua (wild oats); 0.6 kg of a.i./hectare,3 (3=40-60% effect or damage)
same,Herbicidal effect AVF,Avena fatua (wild oats); 2.4 kg of a.i./hectare,4 (4=60-80% effect or damage)
same,Herbicidal effect CRS,[1]; 0.6 kg of a.i./hectare,5 (5=80-100% effect or damage)
same,Herbicidal effect CRS,[1]; 2.4 kg of a.i./hectare,5 (5=80-100% effect or damage)
same,Herbicidal effect ECG,[2]; 0.6 kg of a.i./hectare,5 (5=80-100% effect or damage)
same,Herbicidal effect ECG,[2]; 2.4 kg of a.i./hectare,5 (5=80-100% effect or damage)
same,Herbicidal effect SAL,[3]; 0.6 kg of a.i./hectare,4 (4=60-80% effect or damage)
same,Herbicidal effect SAL,[3]; 2.4 kg of a.i./hectare,5 (5=80-100% effect or damage)
same,Herbicidal effect SIA,[4]; 0.6 kg of a.i./hectare,5 (5=80-100% effect or damage)
same,Herbicidal effect SIA,[4]; 2.4 kg of a.i./hectare,5 (5=80-100% effect or damage)
same,Herbicidal effect STM,[5]; 0.6 kg of a.i./hectare,4 (4=60-80% effect or damage)
same,Herbicidal effect STM,[5]; 2.4 kg of a.i./hectare,5 (5=80-100% effect or damage)
CC(C)C[C@H](N)C(=O)NC(CCP(C)(=O)O)C(=O)O (some centres unmarked) [Example 24],Herbicidal effect CRS,[1]; 2.4 kg of a.i./hectare,5 (5=80-100% effect or damage)
same,Herbicidal effect ECG,[2]; 2.4 kg of a.i./hectare,5 (5=80-100% effect or damage)
same,Herbicidal effect SIA,[4]; 2.4 kg of a.i./hectare,5 (5=80-100% effect or damage)
same,Herbicidal effect STM,[5]; 2.4 kg of a.i./hectare,5 (5=80-100% effect or damage)
"CP(=O)(O)CCC(NC(=O)[C@@H](N)Cc1ccccc1)C(=O)O (mixture of isomers) [Example 2, N-L-phenylalanyl-DL-phosphinothricin]",Herbicidal effect AVF,Avena fatua (wild oats); 0.6 kg of a.i./hectare,5 (5=80-100% effect or damage)
same,Herbicidal effect AVF,Avena fatua (wild oats); 2.4 kg of a.i./hectare,5 (5=80-100% effect or damage)
same,Herbicidal effect CRS,[1]; 0.6 kg of a.i./hectare,5 (5=80-100% effect or damage)
same,Herbicidal effect CRS,[1]; 2.4 kg of a.i./hectare,5 (5=80-100% effect or damage)
same,Herbicidal effect ECG,[2]; 0.6 kg of a.i./hectare,5 (5=80-100% effect or damage)
same,Herbicidal effect ECG,[2]; 2.4 kg of a.i./hectare,5 (5=80-100% effect or damage)
same,Herbicidal effect SAL,[3]; 0.6 kg of a.i./hectare,5 (5=80-100% effect or damage)
same,Herbicidal effect SAL,[3]; 2.4 kg of a.i./hectare,5 (5=80-100% effect or damage)
same,Herbicidal effect SIA,[4]; 0.6 kg of a.i./hectare,5 (5=80-100% effect or damage)
same,Herbicidal effect SIA,[4]; 2.4 kg of a.i./hectare,5 (5=80-100% effect or damage)
same,Herbicidal effect STM,[5]; 0.6 kg of a.i./hectare,4 (4=60-80% effect or damage)
same,Herbicidal effect STM,[5]; 2.4 kg of a.i./hectare,5 (5=80-100% effect or damage)
"CC(C)C(N)C(=O)NC(CCP(C)(=O)O)C(=O)O (racemic) [Example 1, N-Dl-valyl-DL-phosphinothricin]",Herbicidal effect AVF,Avena fatua (wild oats); 0.6 kg of a.i./hectare,4 (4=60-80% effect or damage)
same,Herbicidal effect AVF,Avena fatua (wild oats); 2.4 kg of a.i./hectare,5 (5=80-100% effect or damage)
same,Herbicidal effect CRS,[1]; 0.6 kg of a.i./hectare,5 (5=80-100% effect or damage)
same,Herbicidal effect CRS,[1]; 2.4 kg of a.i./hectare,5 (5=80-100% effect or damage)
same,Herbicidal effect ECG,[2]; 0.6 kg of a.i./hectare,5 (5=80-100% effect or damage)
same,Herbicidal effect ECG,[2]; 2.4 kg of a.i./hectare,5 (5=80-100% effect or damage)
same,Herbicidal effect SAL,[3]; 0.6 kg of a.i./hectare,4 (4=60-80% effect or damage)
same,Herbicidal effect SAL,[3]; 2.4 kg of a.i./hectare,5 (5=80-100% effect or damage)
same,Herbicidal effect SIA,[4]; 0.6 kg of a.i./hectare,5 (5=80-100% effect or damage)
same,Herbicidal effect SIA,[4]; 2.4 kg of a.i./hectare,5 (5=80-100% effect or damage)
same,Herbicidal effect STM,[5]; 0.6 kg of a.i./hectare,4 (4=60-80% effect or damage)
same,Herbicidal effect STM,[5]; 2.4 kg of a.i./hectare,5 (5=80-100% effect or damage)
CP(=O)(O)CCC(NC(=O)[C@@H](N)CCCCN)C(=O)O (some centres unmarked) [Example 72],Herbicidal effect CRS,[1]; 2.4 kg of a.i./hectare,5 (5=80-100% effect or damage)
same,Herbicidal effect ECG,[2]; 2.4 kg of a.i./hectare,5 (5=80-100% effect or damage)
same,Herbicidal effect SIA,[4]; 2.4 kg of a.i./hectare,5 (5=80-100% effect or damage)
same,Herbicidal effect STM,[5]; 2.4 kg of a.i./hectare,5 (5=80-100% effect or damage)
